The source of these data is PMC3269522 (2011).

The assay addresses CyaB (Pseudomonas aeruginosa, UniProt Q9HZ23). As to the kind of experiment: adenylyl cyclase activity assay with purified enzyme. It counts as biochemical.

Broadly, the IC50 is the concentration needed to halve the response being measured. High values mean weaker potency in that assay, low ones greater potency in that assay.

In turn, KH7.148 yielded an IC50 of roughly 10 µM.
